Measured values published in ChEMBL document CHEMBL1144380, “Furanyl-1,3-thiazol-2-yl and benzoxazol-5-yl acetic acid derivatives: novel classes of heparanase inhibitor” (Bioorg Med Chem Lett, 2005).

Molecular target: Cytochrome P450 2C9 (Homo sapiens, UniProt P11712)
Experiment: In vitro inhibitory concentration against Cytochrome P450 2C9
Type: ADME
Settings: not given

Sequence of Cytochrome P450 2C9 (P11712 whole entry): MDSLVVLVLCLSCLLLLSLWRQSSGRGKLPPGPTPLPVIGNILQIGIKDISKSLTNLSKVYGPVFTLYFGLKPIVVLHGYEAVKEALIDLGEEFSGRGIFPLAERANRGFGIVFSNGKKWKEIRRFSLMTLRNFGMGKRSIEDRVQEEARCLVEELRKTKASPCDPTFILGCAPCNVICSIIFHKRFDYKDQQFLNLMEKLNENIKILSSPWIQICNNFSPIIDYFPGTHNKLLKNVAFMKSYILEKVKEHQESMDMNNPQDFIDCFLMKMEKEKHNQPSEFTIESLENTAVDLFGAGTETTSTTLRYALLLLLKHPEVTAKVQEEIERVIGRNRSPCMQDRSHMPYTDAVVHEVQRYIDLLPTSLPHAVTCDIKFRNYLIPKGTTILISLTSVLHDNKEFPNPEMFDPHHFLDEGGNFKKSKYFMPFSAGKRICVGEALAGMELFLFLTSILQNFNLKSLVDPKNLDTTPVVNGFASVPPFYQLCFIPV

IC50 [µM] | Compound
> 30 | O=C(O)Cc1ccc2oc(-c3ccc(NC(=O)/C=C/c4ccc(Br)cc4)c(F)c3)nc2c1

Test system: not listed separately
Experiment: In vitro anti-angiogenic activity in Human endothelial cells
Type: functional, cell-based
Settings: endothelial cell

Compound | IC50 [µM]
O=C(O)Cc1nc(-c2ccc(-c3ccc(NC(=O)/C=C/c4ccc(OC(F)(F)F)cc4)cc3Cl)o2)cs1 | 20
O=C(O)Cc1ccc2oc(-c3ccc(NC(=O)/C=C/c4ccc(Cl)c(Cl)c4)c(F)c3)nc2c1 | 0.2
O=C(O)Cc1nc(-c2ccc(-c3ccc(NC(=O)/C=C/c4ccc(Cl)cc4Cl)cc3Cl)o2)cs1 | > 20
O=C(O)Cc1ccc2oc(-c3ccc(NC(=O)/C=C/c4ccc(Br)cc4)c(F)c3)nc2c1 | 1
O=C(O)Cc1nc(-c2ccc(-c3ccc(NC(=O)c4ccc(OC(F)(F)F)cc4)cc3Cl)o2)cs1 | 0.5
COc1ccc(/C=C/C(=O)Nc2ccc(-c3ccc(-c4csc(CC(=O)O)n4)o3)c(Cl)c2)cc1 | 5
O=C(O)Cc1nc(-c2ccc(-c3ccc(NC(=O)c4ccc(Cl)cc4Cl)cc3Cl)o2)cs1 | 0.5
O=C(O)Cc1ccc2oc(-c3ccc(NC(=O)/C=C/c4ccc(Br)cc4)cc3)nc2c1 | 20
O=C(O)Cc1nc(-c2ccc(-c3ccc(NC(=O)/C=C/c4ccccc4)cc3Cl)o2)cs1 | 15
O=C(O)Cc1ccc2oc(-c3ccc(NC(=O)/C=C/c4cccc(Br)c4)c(F)c3)nc2c1 | 1

The remaining lines, values ahead:

IC50 [µM] | Compound
1 | O=C(O)Cc1ccc2oc(-c3ccc(NC(=O)/C=C/c4ccc(F)c(Cl)c4)c(F)c3)nc2c1
1 | O=C(O)Cc1nc(-c2ccc(-c3ccc(NC(=O)/C=C/c4ccc(Br)cc4)cc3Cl)o2)cs1
> 20 | O=C(O)Cc1ccc2oc(-c3ccc(NC(=O)/C=C/c4cccc(Br)c4)cc3)nc2c1
7.5 | O=C(O)Cc1nc(-c2ccc(-c3ccc(NC(=O)c4ccc(C(F)(F)F)cc4)cc3Cl)o2)cs1
1 | N#Cc1ccc(/C=C/C(=O)Nc2ccc(-c3nc4cc(CC(=O)O)ccc4o3)cc2F)cc1
7.5 | O=C(O)Cc1ccc2oc(-c3ccc(NC(=O)/C=C/c4ccc(Br)cc4)cc3Cl)nc2c1
5 | O=C(O)Cc1ccc2oc(-c3ccc(NC(=O)/C=C/c4ccc(Cl)cc4Cl)cc3Cl)nc2c1
> 20 | N#Cc1cccc(C(=O)Nc2ccc(-c3ccc(-c4csc(CC(=O)O)n4)o3)c(Cl)c2)c1
> 20 | O=C(O)Cc1ccc2oc(-c3ccc(NC(=O)/C=C/c4ccc(Cl)cc4Cl)c(F)c3)nc2c1
5 | O=C(O)Cc1ccc2oc(-c3ccc(NC(=O)/C=C/c4cccc(Cl)c4F)c(F)c3)nc2c1
2 | O=C(O)Cc1nc(-c2ccc(-c3ccc(NC(=O)c4ccc(Cl)cc4)cc3Cl)o2)cs1
7.5 | O=C(O)Cc1ccc2oc(-c3ccc(NC(=O)/C=C/c4cccc(Cl)c4)c(F)c3)nc2c1
20 | O=C(O)Cc1ccc2oc(-c3ccc(NC(=O)/C=C/c4cccc(Br)c4)cc3Cl)nc2c1

Molecular target: T1, Heparanase (Homo sapiens, UniProt Q9Y251)
T1 sequence (Q9Y251 whole entry): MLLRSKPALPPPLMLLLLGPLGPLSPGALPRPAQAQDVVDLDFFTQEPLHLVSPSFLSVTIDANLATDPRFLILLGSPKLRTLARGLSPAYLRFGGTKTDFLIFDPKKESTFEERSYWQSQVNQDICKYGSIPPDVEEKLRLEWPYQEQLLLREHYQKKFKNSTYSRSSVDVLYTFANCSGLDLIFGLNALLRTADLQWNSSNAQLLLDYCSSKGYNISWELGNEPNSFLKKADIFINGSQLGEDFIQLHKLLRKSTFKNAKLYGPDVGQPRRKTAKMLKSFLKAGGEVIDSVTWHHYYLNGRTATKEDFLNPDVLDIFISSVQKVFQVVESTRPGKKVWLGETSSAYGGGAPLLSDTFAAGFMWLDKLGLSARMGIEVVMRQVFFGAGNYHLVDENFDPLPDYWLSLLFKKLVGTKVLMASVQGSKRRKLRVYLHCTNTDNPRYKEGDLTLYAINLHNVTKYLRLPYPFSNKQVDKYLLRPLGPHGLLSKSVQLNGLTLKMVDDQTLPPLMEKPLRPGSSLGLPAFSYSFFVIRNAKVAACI
Experiment: In vitro inhibitory concentration against human Heparanase
Settings: not given

Compound | IC50 [µM]
O=C(O)Cc1ccc2oc(-c3ccc(NC(=O)c4ccc(Br)cc4)cc3Cl)nc2c1 | > 10
O=C(O)Cc1ccc2oc(-c3ccc(NC(=O)/C=C/c4ccccc4)cc3Cl)nc2c1 | > 30

Now from value to compound:

IC50 [µM] | Compound
> 10 | COc1ccccc1NC(=O)/C=C/c1ccc(-c2nc3cc(CC(=O)O)ccc3o2)cc1
> 10 | COc1ccc(NC(=O)/C=C/c2ccc(-c3nc4cc(CC(=O)O)ccc4o3)cc2)cc1OC
> 30 | O=C(O)Cc1nc(-c2ccc(-c3ccc(NC(=O)c4ccccc4)cc3Cl)o2)cs1
